Reference: the CheMixHub viscosity set

Experiment: xn = mol fraction of the nth substance listed

CC(C)CCl + C1CCOC1
viscosity [mPa·s], 101 kPa
Conditions | 298.15 K | 313.15 K
x2 = 0.0537 | 0.4311 | 0.368
x2 = 0.1037 | 0.4325 | 0.3694
x2 = 0.2081 | 0.4353 | 0.3723
x2 = 0.3079 | 0.4379 | 0.3751
x2 = 0.41 | 0.4409 | 0.3781
x2 = 0.5085 | 0.4442 | 0.381
x2 = 0.5964 | 0.4472 | 0.3837
x2 = 0.705 | 0.4512 | 0.3871
x2 = 0.8051 | 0.455 | 0.3904
x2 = 0.8989 | 0.4589 | 0.3938
x2 = 0.951 | 0.461 | 0.3957

ClC(Cl)=C(Cl)Cl + C1CCOC1
303.15 K, 101 kPa
Conditions | viscosity [mPa·s]
x2 = 0.0667 | 0.7821
x2 = 0.1429 | 0.763
x2 = 0.2457 | 0.7362
x2 = 0.3692 | 0.7008
x2 = 0.4384 | 0.6795
x2 = 0.5309 | 0.6487
x2 = 0.6897 | 0.5914
x2 = 0.7605 | 0.5641
x2 = 0.8435 | 0.5312
x2 = 0.9213 | 0.4988

ClC(Cl)=C(Cl)Cl + C1COCCO1
303.15 K, 101.33 kPa
Conditions | viscosity [mPa·s]
x2 = 0.0711 | 0.8321
x2 = 0.1527 | 0.8661
x2 = 0.2465 | 0.8991
x2 = 0.3656 | 0.9331
x2 = 0.4126 | 0.9447
x2 = 0.5332 | 0.9725
x2 = 0.6532 | 0.9982
x2 = 0.7921 | 1.03
x2 = 0.8937 | 1.055
x2 = 0.9581 | 1.074

O=[N+]([O-])c1ccccc1 + C1COCCO1
303.15 K, 101 kPa
Conditions | viscosity [mPa·s]
x1 = 0.0852 | 1.058
x1 = 0.1732 | 1.058
x1 = 0.265 | 1.087
x1 = 0.3592 | 1.107
x1 = 0.4563 | 1.148
x1 = 0.5574 | 1.212
x1 = 0.6625 | 1.274
x1 = 0.7711 | 1.369
x1 = 0.8829 | 1.47

ClC(Cl)=C(Cl)Cl + CC1CCCCC1
303.15 K, 101 kPa
Conditions | viscosity [mPa·s]
x1 = 0.1166 | 0.637
x1 = 0.2246 | 0.648
x1 = 0.3047 | 0.658
x1 = 0.4335 | 0.679
x1 = 0.5554 | 0.708
x1 = 0.6523 | 0.734
x1 = 0.77 | 0.762
x1 = 0.8108 | 0.773
x1 = 0.8864 | 0.79
x1 = 0.9342 | 0.801

C1CCC2CCCCC2C1 (stereo unspecified) + CC12CC3CC(C1)CC(C)(C3)C2
viscosity [mPa·s], 100 kPa
Conditions | x2 = 0.1034 | x2 = 0.2043 | x2 = 0.305 | x2 = 0.4034 | x2 = 0.5024 | x2 = 0.6048 | x2 = 0.7046 | x2 = 0.8094 | x2 = 0.9013
293.15 K | 2.607 | 2.713 | 2.812 | 2.919 | 3.039 | 3.167 | 3.31 | 3.465 | 3.622
298.15 K | 2.361 | 2.449 | 2.53 | 2.628 | 2.728 | 2.844 | 2.967 | 3.102 | 3.237
303.15 K | 2.148 | 2.227 | 2.299 | 2.384 | 2.468 | 2.57 | 2.675 | 2.799 | 2.909
313.15 K | 1.802 | 1.86 | 1.917 | 1.98 | 2.046 | 2.125 | 2.206 | 2.298 | 2.385
323.15 K | 1.505 | 1.547 | 1.592 | 1.641 | 1.697 | 1.759 | 1.825 | 1.902 | 1.974

CCCCCO + CC#N
viscosity [mPa·s], 101 kPa
Conditions | 298.15 K | 303.15 K | 308.15 K
x2 = 0.1083 | 2.485 | 1.966 | 1.752
x2 = 0.1933 | 1.918 | 1.703 | 1.519
x2 = 0.2503 | 1.717 | 1.477 | 1.334
x2 = 0.3407 | 1.33 | 1.2 | 1.088
x2 = 0.4797 | 0.963 | 0.879 | 0.804
x2 = 0.5899 | 0.747 | 0.688 | 0.636
x2 = 0.6833 | 0.619 | 0.569 | 0.527
x2 = 0.7642 | 0.525 | 0.486 | 0.458
x2 = 0.8347 | 0.452 | 0.428 | 0.41
x2 = 0.8958 | 0.418 | 0.392 | 0.369
x2 = 0.9508 | 0.374 | 0.357 | 0.342

CN(C)C=O + CC#N
Conditions | viscosity [mPa·s]
298.15 K, 101 kPa, x2 = 0.0113 | 0.794
298.15 K, 101 kPa, x2 = 0.0144 | 0.792
298.15 K, 101 kPa, x2 = 0.0841 | 0.761
298.15 K, 101 kPa, x2 = 0.103 | 0.747
298.15 K, 101 kPa, x2 = 0.1527 | 0.712
298.15 K, 101 kPa, x2 = 0.2044 | 0.685
298.15 K, 101 kPa, x2 = 0.2682 | 0.654
298.15 K, 101 kPa, x2 = 0.3131 | 0.615
298.15 K, 101 kPa, x2 = 0.3696 | 0.598
298.15 K, 101 kPa, x2 = 0.3798 | 0.603
298.15 K, 101 kPa, x2 = 0.4759 | 0.552
298.15 K, 101 kPa, x2 = 0.5317 | 0.529
298.15 K, 101 kPa, x2 = 0.5759 | 0.492
298.15 K, 101 kPa, x2 = 0.6348 | 0.448
298.15 K, 101 kPa, x2 = 0.6876 | 0.499
298.15 K, 101 kPa, x2 = 0.743 | 0.408
298.15 K, 101 kPa, x2 = 0.7906 | 0.382
298.15 K, 101 kPa, x2 = 0.8453 | 0.382
298.15 K, 101 kPa, x2 = 0.8954 | 0.345
298.15 K, 101 kPa, x2 = 0.9485 | 0.346
298.15 K, 101 kPa, x2 = 0.9723 | 0.333
303.15 K, 101 kPa, x2 = 0.1176 | 0.6994
303.15 K, 101 kPa, x2 = 0.2399 | 0.6372
303.15 K, 101 kPa, x2 = 0.4348 | 0.5495
303.15 K, 101 kPa, x2 = 0.5933 | 0.4816
303.15 K, 101 kPa, x2 = 0.7275 | 0.4283
303.15 K, 101 kPa, x2 = 0.8419 | 0.3842
303.15 K, 101 kPa, x2 = 0.9418 | 0.3496
303.15 K, 101.33 kPa, x2 = 0.0953 | 0.7392
303.15 K, 101.33 kPa, x2 = 0.1981 | 0.6991
303.15 K, 101.33 kPa, x2 = 0.3038 | 0.6537
303.15 K, 101.33 kPa, x2 = 0.3988 | 0.6046
303.15 K, 101.33 kPa, x2 = 0.5 | 0.5476
303.15 K, 101.33 kPa, x2 = 0.6013 | 0.494
303.15 K, 101.33 kPa, x2 = 0.6983 | 0.4471
303.15 K, 101.33 kPa, x2 = 0.8009 | 0.4023
303.15 K, 101.33 kPa, x2 = 0.8992 | 0.3607

ClC(Cl)=C(Cl)Cl + CC#N
303.15 K, 101.32 kPa
Conditions | viscosity [mPa·s]
x2 = 0.1294 | 0.7489
x2 = 0.1929 | 0.7334
x2 = 0.3101 | 0.699
x2 = 0.4022 | 0.6632
x2 = 0.4671 | 0.631
x2 = 0.5673 | 0.5728
x2 = 0.6707 | 0.505
x2 = 0.7358 | 0.4619
x2 = 0.846 | 0.3947
x2 = 0.9295 | 0.3522

c1ccccc1 + CC#N
101 kPa
Conditions | viscosity [mPa·s]
298.15 K, x2 = 0.0325 | 0.5825
298.15 K, x2 = 0.0341 | 0.58
298.15 K, x2 = 0.0416 | 0.5745
298.15 K, x2 = 0.0854 | 0.574
298.15 K, x2 = 0.142 | 0.5155
298.15 K, x2 = 0.2097 | 0.493
298.15 K, x2 = 0.2578 | 0.4835
298.15 K, x2 = 0.3076 | 0.479
298.15 K, x2 = 0.3588 | 0.459
298.15 K, x2 = 0.4192 | 0.4365
298.15 K, x2 = 0.4751 | 0.4295
298.15 K, x2 = 0.5205 | 0.4045
298.15 K, x2 = 0.5786 | 0.394
298.15 K, x2 = 0.6344 | 0.388
298.15 K, x2 = 0.6908 | 0.375
298.15 K, x2 = 0.7377 | 0.379
298.15 K, x2 = 0.7901 | 0.369
298.15 K, x2 = 0.7943 | 0.3555
298.15 K, x2 = 0.8416 | 0.3535
298.15 K, x2 = 0.8962 | 0.3455
298.15 K, x2 = 0.9472 | 0.3275
308.15 K, x1 = 0.1018 | 0.3278
308.15 K, x1 = 0.2042 | 0.3407
308.15 K, x1 = 0.303 | 0.3576
308.15 K, x1 = 0.4008 | 0.378
308.15 K, x1 = 0.4892 | 0.3939
308.15 K, x1 = 0.5921 | 0.4163
308.15 K, x1 = 0.6906 | 0.4413
308.15 K, x1 = 0.8017 | 0.4762
308.15 K, x1 = 0.8951 | 0.4954
